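1) Cells in 96-well plates. 2) Compound, 48 h, 5 concentrations. 3) Linear interpolation between surrounding doses. 4) Unreached endpoint = highest concentration. TGI: total growth inhibition.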
What was measured:
Assay in all cases: NCI-60 cell line screen, 48 h
786-0 renal = system: 786-0 renal
A498 renal = system: A498 renal
A549 NSCLC = system: A549 NSCLC
ACHN renal = system: ACHN renal
BT-549 breast = system: BT-549 breast
CAKI-1 renal = system: CAKI-1 renal
CCRF-CEM leukemia = system: CCRF-CEM leukemia
COLO 205 colon = system: COLO 205 colon
DU-145 prostate = system: DU-145 prostate
EKVX NSCLC = system: EKVX NSCLC
HCC-2998 colon = system: HCC-2998 colon
HCT-116 colon = system: HCT-116 colon
HCT-15 colon = system: HCT-15 colon
HL-60(TB) leukemia = system: HL-60(TB) leukemia
HOP-62 NSCLC = system: HOP-62 NSCLC
HS 578T breast = system: HS 578T breast
HT29 colon = system: HT29 colon
IGROV1 ovarian = system: IGROV1 ovarian
K-562 leukemia = system: K-562 leukemia
KM12 colon = system: KM12 colon
LOX IMVI melanoma = system: LOX IMVI melanoma
M14 melanoma = system: M14 melanoma
MALME-3M melanoma = system: MALME-3M melanoma
MCF7 breast = system: MCF7 breast
MDA-MB-231 breast = system: MDA-MB-231 breast
MDA-MB-435 = system: MDA-MB-435
MDA-N = system: MDA-N
MOLT-4 leukemia = system: MOLT-4 leukemia
NCI-H226 lung = system: NCI-H226 lung
NCI-H23 lung = system: NCI-H23 lung
NCI-H460 lung = system: NCI-H460 lung
NCI-H522 lung = system: NCI-H522 lung
NCI/ADR-RES ovarian = system: NCI/ADR-RES ovarian
OVCAR-3 ovarian = system: OVCAR-3 ovarian
OVCAR-4 ovarian = system: OVCAR-4 ovarian
OVCAR-5 ovarian = system: OVCAR-5 ovarian
OVCAR-8 ovarian = system: OVCAR-8 ovarian
PC-3 prostate = system: PC-3 prostate
RPMI-8226 leukemia = system: RPMI-8226 leukemia
RXF 393 renal = system: RXF 393 renal
SF-268 CNS = system: SF-268 CNS
SF-295 CNS = system: SF-295 CNS
SF-539 CNS = system: SF-539 CNS
SK-MEL-2 melanoma = system: SK-MEL-2 melanoma
SK-MEL-28 melanoma = system: SK-MEL-28 melanoma
SK-MEL-5 melanoma = system: SK-MEL-5 melanoma
SK-OV-3 ovarian = system: SK-OV-3 ovarian
SN12C renal = system: SN12C renal
SNB-19 CNS = system: SNB-19 CNS
SNB-75 CNS = system: SNB-75 CNS
SR leukemia = system: SR leukemia
SW-620 colon = system: SW-620 colon
T-47D breast = system: T-47D breast
TK-10 renal = system: TK-10 renal
U251 CNS = system: U251 CNS
UACC-257 melanoma = system: UACC-257 melanoma
UACC-62 melanoma = system: UACC-62 melanoma
UO-31 renal = system: UO-31 renal

With C[N+](C)([O-])C12CC3CC(CC(C3)C1)C2 the TGI (786-0 renal) was > 100 µM, the TGI (A498 renal) was 67.7 µM and the TGI (A549 NSCLC) was > 100 µM. For the same compound, the TGI (ACHN renal) was > 100 µM, the TGI (BT-549 breast) was > 100 µM and the TGI (CAKI-1 renal) was > 100 µM. For the same compound, the TGI (CCRF-CEM leukemia) was > 100 µM, the TGI (COLO 205 colon) was 70.9 µM and the TGI (DU-145 prostate) was > 100 µM. The TGI (EKVX NSCLC) was 74.3 µM, the TGI (HCC-2998 colon) was > 100 µM and the TGI (HCT-116 colon) was 91.2 µM. The TGI (HCT-15 colon) was > 100 µM, the TGI (HL-60(TB) leukemia) was > 100 µM and the TGI (HOP-62 NSCLC) was > 100 µM. For the same compound, the TGI (HS 578T breast) was > 100 µM, the TGI (HT29 colon) was > 100 µM and the TGI (IGROV1 ovarian) was > 100 µM. For the same compound, the TGI (K-562 leukemia) was > 100 µM, the TGI (KM12 colon) was > 100 µM and the TGI (LOX IMVI melanoma) was 63.8 µM. For the same compound, the TGI (M14 melanoma) was > 100 µM, the TGI (MALME-3M melanoma) was > 100 µM and the TGI (MCF7 breast) was > 100 µM. The TGI (MDA-MB-231 breast) was > 100 µM, the TGI (MDA-MB-435) was > 100 µM and the TGI (MDA-N) was > 100 µM. The TGI (MOLT-4 leukemia) was > 100 µM, the TGI (NCI-H226 lung) was > 100 µM and the TGI (NCI-H23 lung) was > 100 µM. The TGI (NCI-H460 lung) was > 100 µM, the TGI (NCI-H522 lung) was 65.7 µM and the TGI (NCI/ADR-RES ovarian) was > 100 µM. For the same compound, the TGI (OVCAR-3 ovarian) was 58 µM, the TGI (OVCAR-4 ovarian) was > 100 µM and the TGI (OVCAR-5 ovarian) was > 100 µM. For the same compound, the TGI (OVCAR-8 ovarian) was > 100 µM, the TGI (PC-3 prostate) was > 100 µM and the TGI (RPMI-8226 leukemia) was 93.6 µM. The TGI (RXF 393 renal) was > 100 µM, the TGI (SF-268 CNS) was > 100 µM and the TGI (SF-295 CNS) was > 100 µM. The TGI (SF-539 CNS) was > 100 µM, the TGI (SK-MEL-2 melanoma) was > 100 µM and the TGI (SK-MEL-28 melanoma) was > 100 µM. The TGI (SK-MEL-5 melanoma) was > 100 µM, the TGI (SK-OV-3 ovarian) was > 100 µM and the TGI (SN12C renal) was > 100 µM. The TGI (SNB-19 CNS) was > 100 µM, the TGI (SNB-75 CNS) was > 100 µM and the TGI (SR leukemia) was > 100 µM. For the same compound, the TGI (SW-620 colon) was > 100 µM, the TGI (T-47D breast) was 85.7 µM and the TGI (TK-10 renal) was 88 µM. For the same compound, the TGI (U251 CNS) was > 100 µM, the TGI (UACC-257 melanoma) was > 100 µM and the TGI (UACC-62 melanoma) was 47.4 µM. It also gave a TGI (UO-31 renal) of 80.6 µM.

Work on CCCCCCCCCCCCCCCC[N+](C)(C)CCl yielded a TGI (786-0 renal) of 3.31 µM, a TGI (A498 renal) of 32.2 µM and a TGI (A549 NSCLC) of 22.3 µM. It also gave a TGI (ACHN renal) of 8.36 µM, a TGI (BT-549 breast) of 7.87 µM and a TGI (CAKI-1 renal) of 8.74 µM. For the same compound, the TGI (COLO 205 colon) was 4.16 µM, the TGI (DU-145 prostate) was 17.2 µM and the TGI (EKVX NSCLC) was 22.8 µM. It also gave a TGI (HCC-2998 colon) of 3.18 µM, a TGI (HCT-116 colon) of 4.98 µM and a TGI (HCT-15 colon) of 20.9 µM. For the same compound, the TGI (HL-60(TB) leukemia) was 3.12 µM, the TGI (HOP-62 NSCLC) was 6.69 µM and the TGI (HS 578T breast) was 5.26 µM. It also gave a TGI (HT29 colon) of 3.82 µM, a TGI (IGROV1 ovarian) of 1.31 µM and a TGI (M14 melanoma) of 6.38 µM. The TGI (MALME-3M melanoma) was 7.38 µM, the TGI (MCF7 breast) was > 28.9 µM and the TGI (MDA-MB-231 breast) was 4.32 µM. For the same compound, the TGI (MDA-MB-435) was > 39.2 µM, the TGI (MDA-N) was 15.4 µM and the TGI (NCI-H226 lung) was 6.25 µM. For the same compound, the TGI (NCI-H23 lung) was 27.8 µM, the TGI (NCI-H460 lung) was 4.74 µM and the TGI (NCI/ADR-RES ovarian) was 49 µM. It also gave a TGI (OVCAR-3 ovarian) of 14.6 µM, a TGI (OVCAR-4 ovarian) of 8.44 µM and a TGI (OVCAR-5 ovarian) of 21.6 µM. For the same compound, the TGI (OVCAR-8 ovarian) was 7.43 µM, the TGI (PC-3 prostate) was 7.96 µM and the TGI (RPMI-8226 leukemia) was 5.16 µM. For the same compound, the TGI (SF-268 CNS) was 9.38 µM, the TGI (SF-295 CNS) was 6.06 µM and the TGI (SF-539 CNS) was 8.13 µM. For the same compound, the TGI (SK-MEL-2 melanoma) was 49.8 µM, the TGI (SK-MEL-28 melanoma) was > 50.7 µM and the TGI (SK-MEL-5 melanoma) was 2.94 µM. The TGI (SK-OV-3 ovarian) was 27.7 µM, the TGI (SN12C renal) was 12.8 µM and the TGI (SNB-19 CNS) was 3.81 µM. The TGI (SNB-75 CNS) was 5.18 µM, the TGI (SW-620 colon) was > 100 µM and the TGI (T-47D breast) was 23.6 µM. The TGI (TK-10 renal) was 6.41 µM, the TGI (U251 CNS) was 3.04 µM and the TGI (UACC-257 melanoma) was 21.1 µM. For the same compound, the TGI (UACC-62 melanoma) was 6.46 µM and the TGI (UO-31 renal) was 27.9 µM.

— PubChem BioAssay (NCI)
